This note sets out measurements from patent US12644087B2, “Methods to generate polymer scaffolds having a gradient of crosslinking density” (The University of North Carolina at Chapel Hill, priority 2016, dated 2026).

In this series the test system is primary human small intestinal epithelial cells.

Method: Continuous monolayers of primary human small intestinal epithelial cells were generated on the crosslinked collagen hydrogel scaffold. […] (FIG. 3B) Fluorescence images of cells showing the EDU staining (white/light gray) and Hoechst 33342 (dark gray). The cell culture time was 10 days for A and B. (FIG. 3C) TEER vs. time (n=3 scaffolds).
To test this hypothesis, human small intestinal epithelial cells were plated on a hydrogel scaffold prepared in this manner, and the cell growth and TEER were monitored for up to 14 days (FIG. 3C). […] At day 10, the cells were stained with EDU (3-h pulse) to assess proliferating cells and Hoecsht nuclear stain to enable assessment of cell coverage across the scaffold (FIGS. 3A and 3B).

Turning to Lucifer yellow, the “permeability of Lucifer yellow (apical to basal diffusion)” value is recorded as 2.4±0.7 ×10^−8 cm·s^−1.
